Reference: US8362031B2, “Lonidamine analogues and treatment of polycystic kidney disease” (University of Kansas, priority 2004, dated 2013)
Entries after “also recorded” stand apart in the source; their conditions may differ.

Tests used:
P-ERK = test: Western blot of treated ADPKD cells; type: cell-based, human; conditions: 50 uM for 48 h, n=2
Procedure: (§1) Gamendazole (GMZ) was tested to determine if treatment decreases Hsp90 client protein levels in ADPKD cells. Briefly, ADPKD cells were treated with 50 μM GMZ for 24, 48 or 72 hours. Proteins from 20 μg total cell lysate were separated by SDS-PAGE, transferred to a PVDF membrane and probed with antibodies against the Hsp90 client proteins ErbB2 (185 kD), and cdk4 (34 kD). […] GMZ decreased the total levels of these client proteins in ADPKD cells. A decrease in P-ERK correlates with the inhibition of cell proliferation by GMZ. […] The data also provides an indication that other lonidamine derivatives may be useful in therapies for PKD.

total ERK = test: Western blot of treated ADPKD cells; type: cell-based, human; conditions: 50 uM for 48 h
Procedure: as §1

[1] = system: E15.5 kidneys from Pkd1+/+, +/−, and −/− mice; test: Metanephric organ culture, cAMP-driven cyst formation; type: cell-based, mouse
Procedure: To determine whether gamendazole alters the cyst-forming process in response to cAMP, kidneys from Pkd1+/+, +/−, and −/− mice were placed in metanephric culture at E15.5 and treated with 100 uM 8-Br-cAMP with or without gamendazole (100 nM-10 uM) for 4 days.
The length of time that Gamendazole was able to block fluid secretion in embryonic kidneys using a washout technique was studied. Briefly, E15.5 kidneys were treated with cAMP alone or with cAMP plus 5 microM Gamendazole. 24 hrs later, culture medium was removed from the GMZ+cAMP-treated kidneys and was replaced with fresh medium containing cAMP only. […] This was evident by the reduced number and size of the tubule dilations on Day 4.

[2] = system: CFTR-mediated chloride transport; test: Forskolin-induced short-circuit current in ADPKD cell monolayers; type: cell-based, human
Procedure: To determine if the ability of GMZ to inhibit cAMP-stimulated tubule expansion was due to inhibition of CFTR-mediated chloride transport, forskolin-induced short-circuit current was measured with cyst-lining epithelial cells derived from two human ADPKD (autosomal dominant PKD) kidneys. FSK is an adenylyl cyclase agonist, which increases the levels of intracellular cAMP. The cAMP then opens the CFTR chloride channel. […] The bars in FIG. 12G show the results for the three treatments. 1 microM gamendazole applied to the apical side of the cell monolayer was effective in inhibiting greater than 40 percent of the forskolin-stimulated transepithelial chloride transport.

NKCC1 = test: Immunostaining of organ culture kidney sections; type: cell-based, mouse; conditions: 1-5 uM, cAMP-treated E15.5 organ culture kidneys, images not shown
Procedure: To also test whether GMZ can target the Hsp90 client protein NKCC1, sections of E15.5 organ culture kidneys treated with cAMP or cAMP plus GMZ were immunostained with an antibody for NKCC1 (methods in Magenheimer, et al., 2006). […] Consistent with the known localization of NKCC1 in the kidney, the immunolabeling appeared to be decreased in the metanephric mesenchyme and collecting ducts when GMZ was used at 1-5 uM.

rats [3] = test: Animal tolerance studies of GMZ; type: in vivo, rat
Excerpt: The parent compound of GMZ, Lonidamine, inhibits the chloride channel CFTR, interferes with cellular energy output and has been used as an anticancer drug. […] GMZ binds directly to Hsp90-beta and eukaryotic elongation factor eEF1A as shown by affinity chromatography and direct binding studies.

rats [4] = test: Toxicology: organs sectioned and examined after dosing; type: in vivo
[5] = system: ovarian (ID8), taxol-resistant ovarian (ID8), prostate (LNCaP and PC-3), kidney (293); test: Growth of cancer cell lines in vitro; type: cell-based; conditions: all cell lines named
Procedure: (§2) When RC-MC-110 is added to a variety of cancer cells: ovarian (ID8), taxol-resistant ovarian (ID8), prostate (LNCaP and PC-3), kidney (293).

[6] = system: ID8 cells (ovarian cancer); test: ID8 cell growth in vitro; type: cell-based
Procedure: as §2

[7] = 100 nM-10 uM for 4 days with 100 uM 8-Br-cAMP

`O=C(O)CCc1nn(Cc2ccc(Cl)cc2Cl)c2cc(C(F)(F)F)ccc12` [GMZ, 3-[1-(2,4-dichlorobenzyl)-6-trifluoromethyl-1H-indazol-3-yl]-propionic acid] was tested, and the P-ERK levels (P-ERK) was 71.2 % of controls, the “total ERK levels” value (total ERK) was “unchanged” and the “Toxicity to the kidneys in metanephric culture” value [1, 7] was “did not appear to be toxic to the kidneys”. The cystic dilation [1, 7] was “significantly inhibited cystic dilation”, the “cyst formation in Pkd1+/− kidneys” value ([1]; 1-2 uM) was “essentially preventing cyst formation” and the “cyst reduction in Pkd1−/− kidneys” value ([1]; 5-10 uM, data not shown) was “dramatic cyst reduction”. The “cAMP-mediated cyst formation in heterozygous and null metanephric kidneys” value ([1]; 5 microM) was “significantly inhibited cAMP-mediated cyst formation”, the “cystic index, three Pkd1 genotypes” value ([1]; 5 microM) was “dramatic decrease in cystic index” and the “Persistence of inhibition after washout” value ([1]; 5 microM for 24 hrs, then cAMP only, read on Day 4) was “the inhibitory effects appeared to persist in culture”. For the same compound, the “Size of kidneys in organ culture” value ([1]; compared to untreated counterparts) was “somewhat reduced in size”, the inhibition at 1 µM ([2]; Homo sapiens, 1 microM applied to the apical side, 10 microM forskolin, read-out: inhibition of the forskolin-stimulated transepithelial chloride transport) was greater than 40% and the “forskolin-induced Cl-secretion (short-circuit current)” value ([2]; human ADPKD cells, in the presence of benzamil) was “almost completely block”. For the same compound, the “Concentration needed to inhibit CFTR-mediated chloride channel activity, compared with lonidamine” value ([2]; human cyst epithelial cells (ADPKD cells)) was “at much lower concentration; also recorded: effective at lower doses than was Lonidamine itself”, the NKCC1 staining (NKCC1) was “NKCC1 staining was reduced” and the histopathology (rats [3]; 25 mg/kg of IP dosage) was “no apparent histopathology in any organ”. The “behavioral or body weight changes” value (rats [3]; rats, five days post-treatment) was “no evidence of behavioral or body weight changes”.

With `O=C(O)/C=C/c1nn(Cc2ccc(Cl)cc2Cl)c2cc(C(F)(F)F)ccc12` [RC-MC-110, trans 3-[1-(2,4-dichlorobenzyl)-6-trifluoromethyl-1H-indazol-3-yl]-acrylic acid] the “Toxicology: liver, lung, pancreas, spleen, heart and kidney (histology)” value (shortened to “Toxicology: liver, lung, pancreas”) (rats [4]; 6 mg/kg, follow-up experiment, findings per animal) was “The liver did have isolated, scattered, small necrotic patches, resembling what is often found in subacute hepatic necrosis”, the “Toxicology: liver, lung, pancreas” value (rats [4]; 12 mg/kg, follow-up experiment, findings per animal) was “The liver did have isolated, scattered, small necrotic patches, resembling what is often found in subacute hepatic necrosis; also recorded: The liver contained small, patchy areas of necrosis resembling what is often described for subacute hepatic necrosis; also recorded: The lungs also had multiple, small hemorrhagic areas around the respiratory and terminal bronchioles” and the “Toxicology: liver, lung, pancreas” value (rats [4]; 25 mg/kg, two animals examined, findings per animal) was “liver, lung, pancreas, spleen, heart and kidney all appear within normal limits”. The “Toxicology: liver, lung, pancreas” value (rats [4]; 200 mg/kg, two animals examined, findings per animal) was “liver, lung, pancreas, spleen, heart and kidney all appear within normal limits”, the “Toxicology: liver, lung, pancreas” value (rats [4]; oral 1.5 mg/kg, two animals, corn oil) was “the liver showed a small number of randomly scattered, small necrotic patches, but was otherwise normal” and the “Toxicology: liver, lung, pancreas” value (rats [4]; oral 1.5 mg/kg, two animals, corn oil, 1.5 mg/kg) was “The other animal receiving 1.5 mg/kg appeared normal”. The “Toxicology: liver, lung, pancreas” value (rats [4]; oral 6 mg/kg, 3 mg/kg, 1 mg/kg and 0.5 mg/kg, two animals from each dose level, corn oil) was “liver, lung, pancreas, spleen, heart and kidney all appeared within normal limits”, the “Growth of cancer cell lines in vitro” value [5] was “inhibited by RC-MC-110 in a dose-dependent manner” and the “Sensitivity of ID8 cell growth, compared with lonidamine” value [6] was “more sensitive to RC-MC-110 than lonidamine”.
